In ChEMBL document CHEMBL1201862, “PubChem BioAssay data set” (2004):
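96-well plates; 48 h exposure; 5 concentrations. Endpoints by linear interpolation between flanking doses. Not reached: highest tested concentration assigned. GI50: concentration for 50% inhibition of growth.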 Activity calls are given as the source filed them. Cut-off read from the data, not from the text of the source: active = GI50 up to about 1.1 µM and inactive = higher.

Assays:
Test in all cases: inhibition of tumour cell growth, NCI panel, 48 h
CCRF-CEM = system: CCRF-CEM
MDA-N = system: MDA-N
SK-MEL-2 = system: SK-MEL-2
A498 = system: A498
SN12C = system: SN12C
LOX IMVI = system: LOX IMVI
ACHN = system: ACHN
SR = system: SR
HCT-116 = system: HCT-116
NCI-H460 = system: NCI-H460
NCI-H226 = system: NCI-H226
BT-549 = system: BT-549
U-251 = system: U-251
KM12 = system: KM12
MDA-MB-435 = system: MDA-MB-435
SNB-19 = system: SNB-19
MDA-MB-231 = system: MDA-MB-231
MOLT-4 = system: MOLT-4
OVCAR-5 = system: OVCAR-5

Measured: GI50

O=C(NCCCN(CCCCN(CCCNC(=O)c1cc(S(=O)(=O)O)cc(O)c1O)C(=O)c1cc(S(=O)(=O)O)cc(O)c1O)C(=O)c1cc(S(=O)(=O)O)cc(O)c1O)c1cc(S(=O)(=O)O)cc(O)c1O
inactive: CCRF-CEM > 100 µM | MDA-N > 100 µM | SK-MEL-2 > 100 µM | A498 > 100 µM | SN12C > 100 µM | LOX IMVI 98.4 µM | ACHN > 100 µM | SR 60.4 µM | HCT-116 > 100 µM | NCI-H460 > 100 µM | NCI-H226 > 100 µM | BT-549 > 100 µM | U-251 > 100 µM | KM12 > 100 µM | MDA-MB-435 > 100 µM | SNB-19 > 100 µM | MDA-MB-231 > 100 µM

C1=C(c2ccccc2)NC2=N[C@H]3CCCC[C@@H]3N2C1c1ccccc1 (stereo partly specified)
inactive: CCRF-CEM 6.67 µM | MDA-N 15.5 µM | SK-MEL-2 17.8 µM | A498 16.4 µM | MOLT-4 7.74 µM | LOX IMVI 15.3 µM | ACHN 13.7 µM | SR 14.2 µM | OVCAR-5 13.5 µM | HCT-116 7.67 µM | NCI-H460 11 µM | NCI-H226 13.4 µM | BT-549 11.4 µM | U-251 13.4 µM | KM12 10.1 µM | MDA-MB-435 13.6 µM | SNB-19 14.6 µM | MDA-MB-231 15.8 µM

O=C(c1cccnc1)N1N=C(c2ccccc2)CC1(O)c1cc(F)c(Cl)cc1Cl (stereo unspecified)
inactive: CCRF-CEM 24.6 µM | MDA-N 28.6 µM | SK-MEL-2 19.4 µM | SN12C 17.2 µM | MOLT-4 14.5 µM | LOX IMVI 15.7 µM | ACHN 23.2 µM | SR 22.5 µM | OVCAR-5 32.8 µM | HCT-116 13.8 µM | NCI-H460 18.6 µM | NCI-H226 15.6 µM | BT-549 20.3 µM | U-251 16.4 µM | KM12 25.6 µM | MDA-MB-435 26.9 µM | SNB-19 40 µM | MDA-MB-231 15.7 µM

COC(=O)[C@@]12C(=O)C(C)C(=O)[C@]1(C)C(C)=C[C@H]1[C@]3(C=O)CC[C@H](OC(C)=O)C(C)(C)[C@H]3CC[C@@]12C (stereo partly specified)
inactive: CCRF-CEM 4.06 µM | MDA-N > 100 µM | SK-MEL-2 > 100 µM | A498 > 100 µM | MOLT-4 11.9 µM | LOX IMVI 70.6 µM | ACHN > 100 µM | SR 7.48 µM | OVCAR-5 > 100 µM | HCT-116 > 100 µM | NCI-H460 > 100 µM | NCI-H226 > 100 µM | BT-549 > 100 µM | U-251 > 100 µM | KM12 > 100 µM | MDA-MB-435 97.3 µM | SNB-19 > 100 µM | MDA-MB-231 > 100 µM
